Here are results for two compounds from patent US11672790B2, “Methods of managing conditioned fear with neurokinin receptor antagonists” (Emory University, priority 2014, dated 2023).

Assay [1] deals with Tac2-expressing neurons in the CeA. As to the kind of experiment: Gi-DREADD silencing of Tac2-expressing CeA neurons with CNO, fear conditioning and elevated plus maze. Format: in vivo, mice. How it is done:
Tac2-Cre^− or Tac2-Cre^+ mice were infected with the hM4Di-mCherry AAV in the CeA. The Gi receptor was inserted only on the Tac2-Cre cells of Tac2-Cre+mice, CeM=centro-medial amygdala, CeL=centro-lateral amygdala. CNO was given systemically 30 minutes prior to fear conditioning to Tac2-Cre-/hM4Di-mCherry and Tac2 Cre+/hM4DimCherry. […] Tac2-Cre-/hM4DimCherry vs Tac2-Cre+/hM4Di-mCherry. Tac2-Cre-/hM4Di-mCherry and Tac2-Cre+/hM4Di-mCherry mice were retrained to a different acoustic tone (CS) without receiving CNO.
To further understand the role of the Tac2 gene, the activity of neurons expressing this gene in the CeA were temporarily silenced during fear learning using designer receptors exclusively activated by designer drugs (DREADD) technology. The B6.129-Tac2tm1.1(cre) Qima/J (Tac2-cre) (Mar et al., Mol. Brain, 2012, 5, 3) mice were infected with a DREADD Gi-coupled receptor via the pAAV-hSyn-double floxed hM4D-mCherry virus (hM4Di-mCherry AAV). […] 14 days later, clozapine-N-oxide (CNO), which binds to the inserted receptor but otherwise is pharmacologically inert, was given systemically 30 minutes before FC in both groups, Tac2-Cre-/hM4Di-mCherry and Tac2-Cre+/hM4Di-mCherry. CNO had no effect on fear acquisition as shown by equivalent amount of freezing in both groups (FIG. 5A). […] Mice were then retrained with a different CS and a different context in the same FC apparatus, as in previous experiments but without dosing CNO.

In a further assay the target is T1, Nk3R (Mus musculus, UniProt P47937).
T1 construct: endogenous in cells; host or cells: mouse amygdala cell culture (primary)
T1 sequence (P47937 1-452): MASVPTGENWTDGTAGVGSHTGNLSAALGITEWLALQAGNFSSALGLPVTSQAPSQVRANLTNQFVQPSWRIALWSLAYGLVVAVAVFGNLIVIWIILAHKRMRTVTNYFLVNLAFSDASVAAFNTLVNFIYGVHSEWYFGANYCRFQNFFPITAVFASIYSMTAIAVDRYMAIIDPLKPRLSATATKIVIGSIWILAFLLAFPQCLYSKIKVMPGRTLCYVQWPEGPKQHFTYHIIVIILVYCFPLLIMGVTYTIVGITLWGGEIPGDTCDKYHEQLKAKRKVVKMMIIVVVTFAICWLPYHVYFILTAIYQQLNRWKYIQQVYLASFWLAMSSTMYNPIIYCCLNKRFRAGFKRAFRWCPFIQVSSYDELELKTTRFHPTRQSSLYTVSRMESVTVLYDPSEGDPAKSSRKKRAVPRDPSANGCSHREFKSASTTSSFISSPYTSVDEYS
As to the kind of experiment: Amygdala cell culture incubated with osanetant, Nk3R mRNA levels. Format: cell-based. The following applies: incubation with 20 μg and 40 μg of osanetant, vs Veh. The source says:
Moreover, NkB peptide is also highly expressed in the CeA. […] The Nk3R antagonist osanetant has already been used in humans in clinical trials for schizophrenia.

The test system of assay [2] is mice. The assay is described as follows: Open field, systemic osanetant 30 minutes before. Format: in vivo. The following applies: 30 minutes before open field. How it is done: (§1) Different cohorts of mice received systemic osanetant 30 minutes before open field, elevated plus maze or fear conditioning in the startle chamber.
(§2) The above studies indicate that osanetant would target the Nk3R in the amygdale in vivo. Osanetant given systemically, 30 minutes before open field, elevated plus maze and the conditioning chamber elicits no changes in anxiety-like behavior, locomotor activity or electric shock reactivity.

The subject of assay [3] is mice. As to the kind of experiment: Elevated plus maze, systemic osanetant 30 minutes before. It is filed as in vivo. The following applies: 30 minutes before elevated plus maze. How it is done: as §1
FIG. 6C time in open arms,
FIG. 6D entries in open arms, and
FIG. 6E time in closed arms in the elevated plus maze.
as §2

Assay [4] concerns mice. The assay is described as follows: Shock reactivity in the startle chamber. It is filed as in vivo. The following applies: systemic, 30 minutes before testing in the startle chamber. How it is done: as §1, §2
In assay [5] the test system is mice. As to the kind of experiment: Auditory cued fear conditioning and fear expression test, systemic osanetant. The following applies: dosed from 30 min before FC up to 1 hour after training; for fear memory consolidation, freezing in the fear expression test: vs vehicle. Format: in vivo.
Assay [6] deals with Pac1 receptor (Adcyap1r1). The assay is described as follows: Adcyap1r1 (PAC1 receptor) mRNA levels in the amygdala after fear conditioning. It is filed as in vivo, mice. The following applies: intraperitoneally 30 minutes before fear conditioning, vs Veh-FC. The source says: The PACAP-PAC1R pathway is associated with PTSD, fear conditioning and stress.
(§3) Recently, the PACAP-PAC1R pathway has been associated with PTSD in humans as well as in animal models. (See Stevens et al., 2014).

The next assay deals with T2, CeA-NK3R (Mus musculus, UniProt P47937).
T2 construct: from tissue; host or cells: central amygdala of living mice (in vivo infusion)
T2 sequence (P47937 1-452): T1 sequence (P47937 1-452)
The assay is described as follows: Osanetant bilaterally injected into the central amygdala, cued-fear expression test. It is filed as in vivo, mice. The following applies: bilateral infusion in the CeA immediately after fear conditioning; vs vehicle.
From the text: as §3

Another assay deals with IMO treated mice. As to the kind of experiment: Fear conditioning after immobilization to a wooden board (IMO), PTSD-like model. The following applies: systemic immediately after FC. Format: in vivo. How it is done:
Veh=vehicle; Osa=osanetant.
Mice exposed for 2 hours to a severe one-time stressor, immobilization to a wooden board (IMO), present long-term PTSD-like symptoms: impaired fear extinction and spatial memory, and enhanced anxiety-like behaviors. Additionally, IMO in rats elicits alterations of the hypothalamic-pituitary-adrenal (HPA) axis which may be similar to the process initiating PTSD in humans.

For assay [7], the system named is mice. As to the kind of experiment: Fear conditioning in mice with LV-Tac2 or LV-GFP infused in the central amygdala, systemic osanetant. The following applies: systemic immediately after FC, tested 24 hours later. Format: in vivo. The source says:
The lentivirus GFP-FUGW induces GFP expression but not Neurokinin B (NkB) in Hek293 cells. […] Tac2-FUGW or GFP-FUGW were bilaterally infused in the central amygdala and mice were left undisturbed for 14 days.
The lentiviruses GFP-FUGW and Tac2-FUGW causes no changes in fear conditioning. Osanetant or vehicle were given systemically immediately after fear acquisition.
A viral vector was developed to overexpress the Tac2 gene in an inducible fashion within the brain, the lentivirus-Tac2 (LV-Tac2). […] The behavioral effects of Tac2 overexpression was examined in mice. […] Mice infected with the LVTac2 or LV-GFP received systemic osanetant or vehicle immediately after FC, and then fear expression was tested 24 hours later. Specific CeA-Tac2 overexpression elicited a significant enhancement of fear memory consolidation. […] Additionally, the enhanced fear memory consolidation caused by CeA-Tac2 overexpression was reversed by osanetant (Post-hoc, **P≤0.01 vs LV-Tac2-Osa and LV-GFP-Osa FIG. 4D).

In a further assay the test system is guinea-pigs. The following applies: cited from earlier work.

Entries after “also recorded” stand apart in the source; their conditions may differ.

With `C[N+]1([O-])CCN(C2=Nc3cc(Cl)ccc3Nc3ccccc32)CC1` [CNO, clozapine-N-oxide], in assay [1] (CNO 30 minutes before, both Tac2-Cre groups), the “anxiety-like behavior, elevated plus maze” value is reported as “equivalent levels; also recorded: no effect”. In assay [1] (CNO systemically 30 minutes before FC, Tac2-Cre-/hM4Di-mCherry and Tac2-Cre+/hM4Di-mCherry), the “fear acquisition, freezing” value is “no effect; also recorded: did not affect freezing during fear acquisition”. Besides, the “fear expression, freezing 24 hrs later in the absence of CNO” value in assay [1] (Tac2-Cre+/hM4Di-mCherry vs Tac2-Cre-/hM4Di-mCherry, CNO 30 minutes before FC) is recorded as “less freezing; also recorded: less conditioned fear”. The pain sensitivity entry in assay [1] (given CNO, both Tac2-Cre groups) is “equivalent levels”.
On to `CC(=O)N(C)C1(c2ccccc2)CCN(CCC[C@]2(c3ccc(Cl)c(Cl)c3)CCCN(C(=O)c3ccccc3)C2)CC1` [osanetant, (R)-N-{{3-[1-Benzoyl-3-(3,4-dichlorophenyl)piperidin-3-yl]prop-1-yl}-4-phenylpiperidin-4-yl}-N-methylacetamine], for which the “Nk3R mRNA levels” value on Nk3R is “dose-dependent enhanced Nk3R mRNA levels; also recorded: enhances Nk3R mRNA levels; also recorded: increases Nk3R mRNA levels”. Also, the “anxiety-like behavior, time in the center of the open field” value with mice [2] was “no effects”; in the assay with mice [2] (listed as Osanetant) it was “no changes; also recorded: did not modified anxiety-like behavior”. Besides, the entries for the “locomotor activity, distance travelled in the open field” value in the assay with mice [2] and in the assay with mice [2] (listed as Osanetant) were “no effects; also recorded: equivalent distance travelled” and “no changes”, respectively. The “anxiety-like behavior in the elevated plus maze (time in open arms, entries in open arms, time in closed arms)” value was “no effects” in the assay on mice [3] and “no changes; also recorded: did not modified anxiety-like behavior” with mice [3] (listed as Osanetant). In addition, the electric shock reactivity entry was “no effects; also recorded: Equivalent shock reactivity” in the assay on mice [4] and “no changes” in the assay on mice [4] (listed as Osanetant). In addition, the figures for the fear acquisition entry with mice [5] and with mice [5] (listed as Osanetant) were “does not affect fear acquisition” and “without affecting fear expression”, respectively. The “fear memory consolidation, freezing in the fear expression test” value is on record as “impairs fear memory consolidation; also recorded: impairs fear learning” in the assay with mice [5], “impairs cued-fear memory; also recorded: impairs fear memory consolidation” with mice [5] (listed as Osanetant), “impaired memory consolidation” with IMO treated mice and “impaired fear memory consolidation” in the assay with IMO treated mice (listed as Osanetant). The “Adcyap1r1 (PAC1 receptor) mRNA levels in the amygdala” value is recorded as “impaired the enhancement of mRNA levels” in assay [6] and “normalizes the levels; also recorded: prevented the up-regulation” in [6] (listed as Osanetant). Moreover, at CeA-NK3R, the “fear memory consolidation, freezing in the cued-fear expression test” value is “impaired fear memory consolidation”. Besides, the “enhanced fear memory consolidation caused by CeA-Tac2 overexpression” value in the assay with mice [7] (LV-Tac2 mice) is recorded as “reversed; also recorded: impairs this effect”. In addition, the fear memory consolidation entry in the assay with mice [7] (control LV-GFP mice, vs LV-GFP-Veh) is listed as “impaired fear memory consolidation”. For the same compound, the “substance P-induced bronchial hyperreactivity” value in the assay on guinea-pigs is “prevents”.
